Results as given in patent publication US11207430B2, “Gadolinium expressed lipid nanoparticles for magnetic resonance imaging” (University of Washington, priority 2009, dated 2021).
Entries after “also recorded” stand apart in the source; their conditions may differ.

Tests used:
[1] = test system: lymph nodes; assay: Primate lymphatic MRI study (DCE MRI after subcutaneous injection); format: in vivo, M. Nemestrina; conditions: animals injected subcutaneously
Experimental: In vivo imaging of the lymph nodes using Gd-DTPA-lipid nanoparticles for dynamic contrast enhanced (DCE) MRI was performed in a 1.5T MR scanner. The pigtailed macaque (M. Nemestrina) was anesthetized with inhaled isofluorane (1-2%) and closely monitored during the experiments. A pre-contrast image of the primate was recorded to determine proper lymph node location and fine-tune the imaging parameters. The animal was removed from the MR scanner and injected subcutaneously at four sites. […] The total dose of Gd is estimated to be 24.4 μmol/kg for the primate studies.

[2] = test system: vasculature; assay: Rat vascular MRI study (DCE MRI after intravenous injection); format: in vivo; conditions: 0.01 mmol/kg nanoparticles or 0.05 mmol/kg OMNISCAN, 5 min and 14-15 min
Experimental: In vivo imaging of the rat using Gd-DTPA-lipid nanoparticles for dynamic contrast enhanced (DCE) MRI was performed in a 3.0T MR scanner. The rats (SD) was anesthetized with inhaled isofluorane (1-2%) and closely monitored during the experiments. A pre-contrast image of the rat was recorded to determine proper location, orientation and fine-tune the imaging parameters. The animal was removed from the MR scanner and injected with […] of indicated Gd contrast media through femoral vein. The images were recorded on a Signa […] Scanner using a surface coil 12×12 inch.

[3] = clinical use; cited from earlier work

**Q.** With `CNC(=O)CN(CCN(CCN(CC(=O)[O-])CC(=O)NC)CC(=O)[O-])CC(=O)[O-].[Gd+3]` [OMNISCAN, Gd-DTPA-BMA] as the compound, how does the “Time within which signal in lymphatic system dissipates” value [1] read?
**A.** ≤ 20 min

**Q.** And the “Localization of contrast enhancement” value [2]?
**A.** diffused throughout and does not localize in the vasculature, well-perfused tissues, or the lymph nodes; also recorded: diffuse contrast localization with no vascular definition

**Q.** And the Clearance time [3]?
**A.** cleared within a few minutes
